Experimental data taken from EP2667887B1, “PHARMACEUTICAL COMPOSITION COMPRISING THE PEPTIDE GLU-ASP-GLY AND USE FOR TREATING HELICOBACTER PYLORI INDUCED GASTRODUODENAL DISEASES” («Garmonia», Ltd., priority 2011, dated 2012).

What was measured:
[1] = tested on: constitutive and inducible NO synthase (cNO and iNO respectively), HSP70, and NF-kappa b-p65 factor; assay: Western blot of signal molecules from ulcer edge in the rat gastric ulcer model with Helicobacter pylori; type: in vivo, Sprague Dawley rats; conditions: 7th day from ulcer induction; doses of 1 µg to 10 µg per kg of body weight daily for 5 days
Description: The study was carried out on 90 male Sprague Dawley rats (180-220 g) randomly subdivided into 9 groups (10 animals per group): • Group 1 - intact rats (saline solution) • Group 2 - modeled ulcer + saline solution • Group 3 (6 subgroups) - modeled ulcer + H-Glu-Asp-Gly-OH • Group 4 - modeled ulcer + Klacid antibiotic
Ulcer was modeled by three-time administration (in 4 hours) in the rat stomach of cysteamine-HCL (Aldrich, Milwannee, WI) by means of a probe in the dose of 25 mg per 100 g of body weight. The ulcer, approximately 28 mm^2 in size, appeared at the boundary between antral and fundal segments of the stomach 12 hours after the last administration. Simultaneously with the first administration of cysteamine-HCL a Helicobacter pylori culture (Curtin Matheson Scientific Inc, strain Cag J117, 100 microbial cells) was administered in the rat stomach through the same probe.
A means on the basis of the pharmaceutical composition comprising the studied peptide H-Glu-Asp-Gly-OH was administered subcutaneously in the dose of 1 µg per kg of animal body weight (group 3a), 2,5 µg per kg of body weight (group 3b) and 10 µg per kg of body weight (group 3c) in 0,5 ml of saline solution daily, for 5 days from the occurrence of the stomach ulcer. […]

[2] = Subacute toxicity study, 90 days; type: in vivo, white mongrel male rats; conditions: rats, daily for 90 days, 1 µg/kg, 0,1 mg/kg, doses exceed the therapeutic one by 100-1000 times
Description: General toxicity of peptide H-Glu-Asp-Gly-OH was studied in accordance with the requirements of "Manual for Experimental (Pre-Clinical) Study of New Pharmacological Substances" (2000): acute toxicity in case of a single administration of the preparation, as well as subacute and chronic toxicity in case of a long-term administration of the peptide.
Subacute toxicity study was carried out on 64 white mongrel male rats with body weight 180-220 g. Experimental animals received the preparation daily, once a day for 90 days in the doses of 1 µg/kg, 0,1 mg/kg, 1 mg/kg in 0,5 ml of sterile 0,9% NaCl solution. Control animals were treated with sterile 0,9% NaCl solution in the same volume. Before the administration of the preparation, as well as on the 30th, 60th and 90th day after the beginning of the administration of the preparation peripheral blood morphology and properties were studied in the animals. Upon completion of the experiment biochemical and coagulology indices of the blood were evaluated.

For “glutamyl-aspartyl-glycine [H-Glu-Asp-Gly-OH]”, the “level of production of signal molecules (both NO synthase forms, HSP70, NF kappa b-p65) in the mucous membrane of the edge of the ulcer” value [1] was “comparable with commonly normal indices” and the subacute toxicity [2] was “no side effects”.
